From patent US20070021434A1, “NON-NUCLEOSIDE ANTI-HEPACIVIRUS AGENTS AND USES THEREOF” (Migenix Inc., priority 2005, published 2007) come the findings set out here.

SMILES strings stand for the structures.

HCV RdRp (NS5B), sequence (P26663 whole entry, looked up): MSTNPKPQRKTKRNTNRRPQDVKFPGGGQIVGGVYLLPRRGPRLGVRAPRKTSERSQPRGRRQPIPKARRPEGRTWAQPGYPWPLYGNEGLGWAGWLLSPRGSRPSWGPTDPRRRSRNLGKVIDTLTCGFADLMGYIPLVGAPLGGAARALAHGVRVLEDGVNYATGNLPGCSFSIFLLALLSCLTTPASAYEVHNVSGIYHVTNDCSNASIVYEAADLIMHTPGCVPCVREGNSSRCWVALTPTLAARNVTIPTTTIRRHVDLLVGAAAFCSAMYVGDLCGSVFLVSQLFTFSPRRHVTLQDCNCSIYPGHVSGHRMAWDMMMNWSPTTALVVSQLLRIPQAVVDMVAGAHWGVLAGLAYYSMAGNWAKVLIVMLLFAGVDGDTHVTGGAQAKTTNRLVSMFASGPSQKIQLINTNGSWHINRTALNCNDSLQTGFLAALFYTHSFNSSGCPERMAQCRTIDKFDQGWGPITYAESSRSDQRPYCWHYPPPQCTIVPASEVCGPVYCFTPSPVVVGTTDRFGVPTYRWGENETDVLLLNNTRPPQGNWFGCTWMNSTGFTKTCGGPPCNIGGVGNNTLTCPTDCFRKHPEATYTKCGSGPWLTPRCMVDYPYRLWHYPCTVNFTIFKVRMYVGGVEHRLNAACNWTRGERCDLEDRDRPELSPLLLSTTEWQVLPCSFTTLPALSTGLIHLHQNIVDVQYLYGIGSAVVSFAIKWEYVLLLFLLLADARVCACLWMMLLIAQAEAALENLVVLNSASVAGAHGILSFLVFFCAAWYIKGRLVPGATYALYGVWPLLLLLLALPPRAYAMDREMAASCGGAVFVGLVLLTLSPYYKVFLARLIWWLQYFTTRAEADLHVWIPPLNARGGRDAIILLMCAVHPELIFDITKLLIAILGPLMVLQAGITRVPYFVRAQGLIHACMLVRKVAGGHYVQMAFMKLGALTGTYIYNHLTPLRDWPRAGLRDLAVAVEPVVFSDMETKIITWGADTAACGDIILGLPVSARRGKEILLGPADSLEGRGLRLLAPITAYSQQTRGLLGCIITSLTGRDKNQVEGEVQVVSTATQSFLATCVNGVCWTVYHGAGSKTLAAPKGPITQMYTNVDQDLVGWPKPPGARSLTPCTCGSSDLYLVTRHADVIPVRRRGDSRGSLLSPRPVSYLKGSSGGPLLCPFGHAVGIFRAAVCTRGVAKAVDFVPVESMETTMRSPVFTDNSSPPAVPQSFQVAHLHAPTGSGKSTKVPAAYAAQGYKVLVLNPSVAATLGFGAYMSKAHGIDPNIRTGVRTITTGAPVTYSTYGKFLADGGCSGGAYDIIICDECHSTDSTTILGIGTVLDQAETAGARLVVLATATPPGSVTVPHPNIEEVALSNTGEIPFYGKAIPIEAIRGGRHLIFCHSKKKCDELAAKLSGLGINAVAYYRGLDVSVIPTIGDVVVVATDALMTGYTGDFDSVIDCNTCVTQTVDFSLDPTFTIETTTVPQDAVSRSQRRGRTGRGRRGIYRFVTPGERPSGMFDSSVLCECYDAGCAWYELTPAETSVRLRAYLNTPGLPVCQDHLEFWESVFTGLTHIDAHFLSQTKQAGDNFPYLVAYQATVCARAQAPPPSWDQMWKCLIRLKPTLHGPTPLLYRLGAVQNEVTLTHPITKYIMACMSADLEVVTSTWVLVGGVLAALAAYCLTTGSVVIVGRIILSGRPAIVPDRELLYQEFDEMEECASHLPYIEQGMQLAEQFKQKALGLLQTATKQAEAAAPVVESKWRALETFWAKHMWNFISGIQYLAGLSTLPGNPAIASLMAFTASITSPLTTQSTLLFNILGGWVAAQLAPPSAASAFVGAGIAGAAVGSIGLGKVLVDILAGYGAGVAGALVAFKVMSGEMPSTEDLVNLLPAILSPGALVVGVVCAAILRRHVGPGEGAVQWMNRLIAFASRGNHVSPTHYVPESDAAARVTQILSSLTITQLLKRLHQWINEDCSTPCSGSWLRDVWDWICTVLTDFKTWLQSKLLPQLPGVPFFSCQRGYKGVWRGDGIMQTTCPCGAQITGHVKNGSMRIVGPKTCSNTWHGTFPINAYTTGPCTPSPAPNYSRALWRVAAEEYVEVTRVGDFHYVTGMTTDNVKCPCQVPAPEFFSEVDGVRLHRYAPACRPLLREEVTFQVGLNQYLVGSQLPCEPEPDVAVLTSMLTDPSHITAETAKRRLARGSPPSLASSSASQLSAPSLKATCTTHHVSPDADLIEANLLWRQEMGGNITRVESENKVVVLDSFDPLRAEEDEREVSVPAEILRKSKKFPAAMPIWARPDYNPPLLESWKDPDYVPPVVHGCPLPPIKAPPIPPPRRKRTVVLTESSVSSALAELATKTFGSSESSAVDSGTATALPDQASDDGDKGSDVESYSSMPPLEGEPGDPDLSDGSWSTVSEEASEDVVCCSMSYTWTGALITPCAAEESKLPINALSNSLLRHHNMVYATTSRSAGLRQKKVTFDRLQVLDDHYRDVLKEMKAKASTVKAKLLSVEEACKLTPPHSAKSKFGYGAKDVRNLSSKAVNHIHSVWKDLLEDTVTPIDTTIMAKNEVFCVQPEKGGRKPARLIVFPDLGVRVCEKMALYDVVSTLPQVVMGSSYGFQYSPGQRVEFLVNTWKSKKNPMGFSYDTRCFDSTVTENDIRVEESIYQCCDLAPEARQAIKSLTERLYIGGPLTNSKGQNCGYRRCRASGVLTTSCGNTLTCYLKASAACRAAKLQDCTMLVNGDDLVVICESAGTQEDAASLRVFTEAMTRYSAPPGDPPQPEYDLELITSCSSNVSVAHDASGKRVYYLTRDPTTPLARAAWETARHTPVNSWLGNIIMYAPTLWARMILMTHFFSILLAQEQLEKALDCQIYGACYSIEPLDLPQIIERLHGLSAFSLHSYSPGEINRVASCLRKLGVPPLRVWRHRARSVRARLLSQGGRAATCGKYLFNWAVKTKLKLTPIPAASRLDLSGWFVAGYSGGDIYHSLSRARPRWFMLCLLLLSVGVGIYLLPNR

This experiment addresses HCV RdRp (NS5B) (UniProt P26663). It is filed as biochemical, hepatitis C virus.
For `CC(C)(C)OC(=O)NCCCC[C@H](N)C(=O)N(Cc1ccccc1)C1CCCCC1` [Compound 34, (S)-[5-AMINO-5-(BENZYL-CYCLOHEXYL-CARBAMOYL)-PENTYL]-CARBAMIC ACID TERT-BUTYL ESTER], the IC50 lay in the range of 10 to 50 µM.

For the compound `NCCCC[C@H](NC(=O)[C@@H](N)Cc1c[nH]c2ccccc12)C(=O)Nc1ccc(CN(C(=O)c2ccco2)C2CCCCC2)cc1` [Compound 23, (S)-FURAN-2-CARBOXYLIC ACID (4-{6-AMINO-2-[2-(S)-AMINO-3-(1H-INDOL-3-YL)-PROPIONYLAMINO]-HEXANOYLAMINO}-BENZYL)-CYCLOHEXYL-AMIDE], the IC50 fell in the range of 10 to 50 µM.

Regarding `Cc1ccc(NC(=O)CC2CN(C(=O)CCN)CCN2C(=O)OCC2c3ccccc3-c3ccccc32)cc1` (stereo not drawn) [Compound 183, 4-(3-AMINO-PROPIONYL)-2-(P-TOLYLCARBAMOYL-METHYL)-PIPERAZINE-1-CARBOXYLIC ACID 9H-FLUOREN-9-YLMETHYL ESTER], the IC50 is above 50 µM.

The compound `Cc1ccc(NC(=O)CN(CCCCN)C(=O)Nc2ccc(OCc3ccccc3)cc2)cc1` [Compound 278, 2-[1-(4-AMINO-BUTYL)-3-(4-BENZYLOXY-PHENYL)-UREIDO]-N-P-TOLYL-ACETAMIDE] yielded an IC50 of 10 to 50 µM.

With `Cc1cc2cc(NC(=O)[C@H](CCCCNC(=O)CN)NC(=O)Nc3ccc4c(c3)Cc3ccccc3-4)ccc2[nH]1` [Compound 298, (S)-6-(2-AMINO-ACETYLAMINO)-2-[3-(9H-FLUOREN-2-YL)-UREIDO]-HEXANOIC ACID (2-METHYL-1H-INDOL-5-YL)-AMIDE], the IC50 is above 50 µM.

The compound `NCCCC[C@@H](NC(=O)OCC1c2ccccc2-c2ccccc21)C(=O)Nc1ccc(C2CCCCC2)cc1` [Compound 128, (R)-[5-AMINO-1-(4-CYCLOHEXYL-PHENYLCARBAMOYL)-PENTYL]-CARBAMIC ACID 9H-FLUOREN-9-YLMETHYL ESTER] came in with an IC50 below 10 µM.

With `NCCCC[C@H](NC(=O)OCC1c2ccccc2-c2ccccc21)C(=O)Nc1cccc2[nH]ccc12` [Compound 208, (S)-[5-AMINO-1-(1H-INDOL-4-YLCARBAMOYL)-PENTYL]-CARBAMIC ACID 9H-FLUOREN-9-YLMETHYL ESTER], the IC50 was below 10 µM.

Compound `Cc1ccc(NC(=O)C(CCN)NC(=O)OCC2c3ccccc3-c3ccccc32)cc1` [Compound 400, (R)-(3-AMINO-1-P-TOLYLCARBAMOYL-PROPYL)-CARBAMIC ACID 9H-FLUOREN-9-YLMETHYL ESTER] gave an IC50 above 50 µM.

On to `Cc1ccc(NC(=O)[C@@H](CCCN)NC(=O)Nc2ccc3c(c2)Cc2ccccc2-3)cc1` [Compound 193, (R)-5-AMINO-2-[3-(9H-FLUOREN-2-YL)-UREIDO]-PENTANOIC ACID P-TOLYLAMIDE], for which the IC50 was below 10 µM.

With `Cc1ccc(NC(=O)C(Cc2ccc(N)cc2)NC(=O)OCC2c3ccccc3-c3ccccc32)cc1` [Compound 180, (S)-[2-(4-AMINO-PHENYL)-1-P-TOLYLCARBAMOYL-ETHYL]-CARBAMIC ACID 9H-FLUOREN-9-YLMETHYL ESTER], the IC50 is above 50 µM.

`COc1cccc(CNCC(=O)N[C@@H](CCCCN)C(=O)Nc2ccc(C)cc2)c1` [Compound 342, (S)-6-AMINO-2-[2-(3-METHOXY-BENZYLAMINO)-ACETYLAMINO]-HEXANOIC ACID P-TOLYLAMIDE] registered an IC50 above 50 µM.

In turn, `NCCCC[C@H](NC(=O)Nc1cccc2ccccc12)C(=O)Nc1ccc(CN(C(=O)c2ccco2)C2CCCCC2)cc1` [Compound 31, (S)-FURAN-2-CARBOXYLIC ACID {4-[6-AMINO-2-(3-NAPHTHALEN-1-YL-UREIDO)-HEXANOYLAMINO]-BENZYL}-CYCLOHEXYL-AMIDE] showed a concentration for half-maximal inhibition (IC50) of 10 to 50 µM.

`NCCCC[C@H](NC(=O)OCC1c2ccccc2-c2ccccc21)C(=O)Nc1cccc(C(F)(F)F)c1` [Compound 218, (S)-[5-AMINO-1-(3-TRIFLUOROMETHYL-PHENYLCARBAMOYL)-PENTYL]-CARBAMIC ACID 9H-FLUOREN-9-YLMETHYL ESTER] displayed a half-inhibitory concentration (IC50) above 50 µM.

The compound `Cc1ccc(CNCC(=O)NC(CCCCN)C(=O)Nc2ccc(C)cc2)cc1` [Compound 340, (S)-6-AMINO-2-[2-(4-METHYL-BENZYLAMINO)-ACETYLAMINO]-HEXANOIC ACID P-TOLYLAMIDE] registered a 50% inhibitory concentration (IC50) above 50 µM.

`CCNCC(=O)N1CCN(C(=O)OCC2c3ccccc3-c3ccccc32)C(CC(=O)Nc2ccc(C)cc2)C1` (stereo not drawn) [Compound 187, 4-(2-ETHYLAMINO-ACETYL)-2-(P-TOLYLCARBAMOYL-METHYL)-PIPERAZINE-1-CARBOXYLIC ACID 9H-FLUOREN-9-YLMETHYL ESTER] gave an IC50 of 10 to 50 µM.

Compound `Cc1ccc(NC(=O)C(CCCCN)NC(=O)Nc2ccc(Cc3ccccc3)cc2)cc1` [Compound 74, (S)-6-AMINO-2-[3-(4-BENZYL-PHENYL)-UREIDO]-HEXANOIC ACID P-TOLYLAMIDE] returned an IC50 of 10 to 50 µM.

`Cc1cc2cc(NC(=O)[C@H](CCCNC(=O)CN)NC(=O)OCC3c4ccccc4-c4ccccc43)ccc2[nH]1` [Compound 238, (S)-[4-(2-AMINO-ACETYLAMINO)-1-(2-METHYL-1H-INDOL-5-YLCARBAMOYL)-BUTYL]-CARBAMIC ACID 9H-FLUOREN-9-YLMETHYL ESTER] had an IC50 below 10 µM.

The compound `NCCCCC[C@H](NC(=O)OCC1c2ccccc2-c2ccccc21)C(=O)Nc1ccc(C2CCCCC2)cc1` [Compound 116, (S)-[6-AMINO-1-(4-CYCLOHEXYL-PHENYLCARBAMOYL)-HEXYL]-CARBAMIC ACID 9H-FLUOREN-9-YLMETHYL ESTER] had an IC50 below 10 µM.

Compound `Cc1ccc(NC(=O)[C@H](CCCCN)NC(=O)Nc2ccc(OCc3ccc(Cl)cc3)cc2)cc1` [Compound 273, (S)-6-AMINO-2-{3-[4-(4-CHLORO-BENZYLOXY)-PHENYL]-UREIDO}-HEXANOIC ACID P-TOLYLAMIDE] displayed a half-inhibitory concentration (IC50) below 10 µM.

As for `NCCCC[C@H](NC(=O)OCC1c2ccccc2-c2ccccc21)C(=O)Nc1ccc(F)cc1` [Compound 44, (S)-[5-AMINO-1-(4-FLUORO-PHENYLCARBAMOYL)-PENTYL]-CARBAMIC ACID 9H-FLUOREN-9-YLMETHYL ESTER], the IC50 was above 50 µM.

With `Cc1ccc(NC(=O)[C@H](CCCCN)NC(=O)Nc2cccc(OCc3ccccc3)c2)cc1` [Compound 204, (S)-6-AMINO-2-[3-(3-BENZYLOXY-PHENYL)-UREIDO]-HEXANOIC ACID P-TOLYLAMIDE], the IC50 was above 50 µM.

Compound `Cc1ccc(NC(=O)C(CCCCN)NC(=O)c2cccc3ccccc23)cc1` (stereo not drawn) [Compound 79, NAPHTHALENE-1-CARBOXYLIC ACID (5-AMINO-1-P-TOLYLCARBAMOYL-PENTYL)-AMIDE] had a 50% inhibitory concentration (IC50) above 50 µM.

Compound `COc1ccc(NC(=O)N[C@@H](CCCCN)C(=O)Nc2ccc(C)cc2)cc1` [Compound 300, (S)-6-AMINO-2-[3-(4-METHOXY-PHENYL)-UREIDO]-HEXANOIC ACID P-TOLYLAMIDE] displayed a concentration for half-maximal inhibition (IC50) above 50 µM.

The compound `NCCCCC(NC(=O)OCC1c2ccccc2-c2ccccc21)C(=O)Nc1ccccc1` (stereo in doubt) [Compound 19, (S)-(5-AMINO-1-PHENYLCARBAMOYL-PENTYL)-CARBAMIC ACID 9H-FLUOREN-9-YLMETHYL ESTER] had an IC50 above 50 µM.

`Cc1ccc(NC(=O)[C@H](CCCCN)NC(=O)Nc2ccc(Oc3ccccc3)cc2)cc1` [Compound 41, (S)-6-AMINO-2-[3-(4-PHENOXY-PHENYL)-UREIDO]-HEXANOIC ACID P-TOLYLAMIDE] yielded a concentration for half-maximal inhibition (IC50) above 50 µM.

Compound `Cc1ccc(NC(=O)[C@H](CCCCN)NC(=O)Nc2cccc(Oc3ccccc3)c2)cc1` [Compound 98, (S)-6-AMINO-2-[3-(3-PHENOXY-PHENYL)-UREIDO]-HEXANOIC ACID P-TOLYLAMIDE] gave an IC50 above 50 µM.

On to `Cc1ccc(NC(=O)[C@H](CCCCN)NS(=O)(=O)c2cc(Cl)cc(Cl)c2)cc1` [Compound 394, (S)-6-AMINO-2-(3,5-DICHLORO-BENZENESULFONYLAMINO)-HEXANOIC ACID P-TOLYLAMIDE], for which the half-inhibitory concentration (IC50) was above 50 µM.

As for `Cc1ccc(NC(=O)[C@H](CCCCN)NS(=O)(=O)c2cccc3ccccc23)cc1` [Compound 68, (S)-6-AMINO-2-(NAPHTHALENE-1-SULFONYLAMINO)-HEXANOIC ACID P-TOLYLAMIDE], the IC50 is above 50 µM.

Turning to `Cc1ccc(NC(=O)C(Cc2ccc(CN)cc2)NC(=O)OCC2c3ccccc3-c3ccccc32)cc1` [Compound 175, (R)-[2-(4-AMINOMETHYL-PHENYL)-1-P-TOLYLCARBAMOYL-ETHYL]-CARBAMIC ACID 9H-FLUOREN-9-YLMETHYL ESTER], the IC50 is below 10 µM.

On to `CC(C)(C)c1ccc(NC(=O)[C@H](Cc2ccc(CN)cc2)NC(=O)NC(c2ccccc2)c2ccccc2)cc1` [Compound 151, (S)-3-(4-AMINOMETHYL-PHENYL)-2-(3-BENZHYDRYL-UREIDO)-N-(4-TERT-BUTYL-PHENYL)-PROPIONAMIDE], for which the IC50 was below 10 µM.

The compound `Cc1ccc(NC(=O)[C@H](CCCCN)NC(=O)CNCc2ccc(F)cc2)cc1` [Compound 346, (S)-6-AMINO-2-[2-(4-FLUORO-BENZYLAMINO)-ACETYLAMINO]-HEXANOIC ACID P-TOLYLAMIDE] gave an IC50 above 50 µM.

Compound `NCCCC[C@H](NC(=O)Nc1ccc(OCc2ccccc2)cc1)C(=O)Nc1nc2ccccc2s1` [Compound 303, (S)-6-AMINO-2-[3-(4-BENZYLOXY-PHENYL)-UREIDO]-HEXANOIC ACID BENZOTHIAZOL-2-YLAMIDE] returned an IC50 above 50 µM.

On to `NCCCCN(CC(=O)Nc1cccc2[nH]ccc12)C(=O)Nc1ccc(OCc2ccccc2)cc1` [Compound 281, 2-[1-(4-AMINO-BUTYL)-3-(4-BENZYLOXY-PHENYL)-UREIDO]-NR-(1H-INDOL-4-YL)-ACETAMIDE], for which the IC50 is above 50 µM.

Take `Cc1ccc(NC(=O)[C@H](CCCCN)NC(=O)NS(=O)(=O)c2ccccc2)cc1` [Compound 99, (S)-6-AMINO-2-[PHENYLSULFONAMIDE-UREIDO]-HEXANOIC ACID P-TOLYLAMIDE]: the IC50 was above 50 µM.

As to `NCCCC[C@H](NC(=O)c1ccccc1)C(=O)Nc1ccc(CN(C(=O)c2ccco2)C2CCCCC2)cc1` [Compound 27, (S)-FURAN-2-CARBOXYLIC ACID [4-(6-AMINO-2-BENZOYLAMINO-HEXANOYLAMINO)-BENZYL]-CYCLOHEXYL-AMIDE], the half-maximal inhibitory concentration (IC50) is above 50 µM.

With `Cc1ccc(NC(=O)C(CCCCN)NC(=O)CNCc2ccccc2C)cc1` [Compound 338, (S)-6-AMINO-2-[2-(2-METHYL-BENZYLAMINO)-ACETYLAMINO]-HEXANOIC ACID P-TOLYLAMIDE], the IC50 was above 50 µM.
